Experimental data taken from the NIST ThermoML archive (doi:10.1007/s10765-013-1526-8).
± gives the expanded uncertainty stated by the source.

Key:
[1] = xn = mol fraction of the nth substance listed; conditions: 101 kPa, Liquid; for speed of sound: Sing-around technique in a fixed-path interferometer
[2] = refractive index (Na D-line) (dimensionless); xn = mol fraction of the nth substance listed; conditions: 101 kPa, Liquid
[3] = 101 kPa, Liquid; for speed of sound: Sing-around technique in a fixed-path interferometer
[4] = refractive index (Na D-line) (dimensionless); conditions: 101.33 kPa, Liquid

Clc1ccccc1 [chlorobenzene] + CCCCC(CC)CO
x1 = 1
Conditions | mass density, [1] [kg/m3] | refractive index, [2] | speed of sound, [1] [m/s] | viscosity, [1] [mPa·s]
298.15 K | 1101.03 ± 1.1 | 1.524 ± 0.002 | 1268 ± 10 | 0.767 ± 0.079
303.15 K | 1095.52 ± 1.1 | 1.521 ± 0.002 | 1249 ± 10 | 0.716 ± 0.074
308.15 K | 1090.2 ± 1.1 | 1.518 ± 0.002 | 1231 ± 10 | 0.66 ± 0.069

Brc1ccccc1 [bromobenzene]
Conditions | mass density, [3] [kg/m3] | refractive index, [4] | speed of sound, [3] [m/s] | viscosity, [3] [mPa·s]
298.15 K | 1488.12 ± 2.2 | 1.557 ± 0.0019 | 1153 ± 10 | 1.065 ± 0.1
303.15 K | 1481.4 ± 2.2 | 1.555 ± 0.0019 | 1138 ± 10 | 1.005 ± 0.099
308.15 K | 1474.58 ± 2.2 | 1.553 ± 0.0019 | 1122 ± 10 | 0.972 ± 0.096

CCCCC(CC)CO (centres undefined) [2-ethyl-1-hexanol]
Conditions | mass density, [3] [kg/m3] | refractive index, [4] | speed of sound, [3] [m/s] | viscosity, [3] [mPa·s]
298.15 K | 829.07 ± 0.82 | 1.4287 ± 0.0019 | 1319 ± 10 | 8.418 ± 0.65
303.15 K | 825.39 ± 0.83 | 1.4266 ± 0.0019 | 1301 ± 10 | 7.144 ± 0.57
308.15 K | 821.68 ± 0.84 | 1.4245 ± 0.0019 | 1283 ± 10 | 6.09 ± 0.5

Clc1ccccc1 [chlorobenzene]
Conditions | mass density, [3] [kg/m3] | refractive index, [4] | speed of sound, [3] [m/s] | viscosity, [3] [mPa·s]
298.15 K | 1101.03 ± 1.1 | 1.524 ± 0.002 | 1268 ± 10 | 0.767 ± 0.079
303.15 K | 1095.52 ± 1.1 | 1.521 ± 0.002 | 1249 ± 10 | 0.716 ± 0.074
308.15 K | 1090.2 ± 1.1 | 1.518 ± 0.002 | 1231 ± 10 | 0.66 ± 0.069

CCCCC(CC)CO (centres undefined) [2-ethyl-1-hexanol] + Brc1ccccc1
x2 = 0
Conditions | mass density, [1] [kg/m3] | refractive index, [2] | speed of sound, [1] [m/s] | viscosity, [1] [mPa·s]
298.15 K | 829.07 ± 0.82 | 1.4287 ± 0.0019 | 1319 ± 10 | 8.418 ± 0.65
303.15 K | 825.39 ± 0.83 | 1.4266 ± 0.0019 | 1301 ± 10 | 7.144 ± 0.57
308.15 K | 821.68 ± 0.84 | 1.4245 ± 0.0019 | 1283 ± 10 | 6.09 ± 0.5

c1ccccc1 [benzene]
Conditions | mass density, [3] [kg/m3] | refractive index, [4] | speed of sound, [3] [m/s] | viscosity, [3] [mPa·s]
298.15 K | 873.66 ± 0.66 | 1.4969 ± 0.0019 | 1299 ± 10 | 0.603 ± 0.065
303.15 K | 868.29 ± 0.68 | 1.4949 ± 0.0019 | 1276 ± 10 | 0.557 ± 0.061
308.15 K | 862.92 ± 0.69 | 1.4929 ± 0.0019 | 1253 ± 10 | 0.533 ± 0.059

c1ccccc1 [benzene] + CCCCC(CC)CO
x1 = 1
Conditions | mass density, [1] [kg/m3] | refractive index, [2] | speed of sound, [1] [m/s] | viscosity, [1] [mPa·s]
298.15 K | 873.66 ± 0.66 | 1.4969 ± 0.0019 | 1299 ± 10 | 0.603 ± 0.065
303.15 K | 868.29 ± 0.68 | 1.4949 ± 0.0019 | 1276 ± 10 | 0.557 ± 0.061
308.15 K | 862.92 ± 0.69 | 1.4929 ± 0.0019 | 1253 ± 10 | 0.533 ± 0.059
